Measurements reported in ChEMBL document CHEMBL4251581, “Synthesis and antimycobacterial activity of triterpeni≿ A-ring azepanes” (Eur J Med Chem, 2018).
In brackets after ≈: the same amount, converted by molar mass.

Tests used:
[1] = system: Mycobacterium tuberculosis; test: Antimycobacterial activity against Mycobacterium tuberculosis H37Rv; format: functional, organism-based
[2] = system: Mycobacterium tuberculosis; test: Bactericidal activity against Mycobacterium tuberculosis H37Rv; format: functional
[3] = system: Mycobacterium tuberculosis; test: Antimycobacterial activity against Mycobacterium tuberculosis H37Ra by microplate alamar blue assay; format: functional
[4] = system: Mycobacterium tuberculosis; test: Antimycobacterial activity against Mycobacterium tuberculosis H37Rv after 7 days by microplate alamar blue assay; format: functional; details: 168 h
[5] = system: Mycobacterium tuberculosis; test: Antimycobacterial activity against Mycobacterium tuberculosis H37Rv ATCC 27294 by microplate alamar blue assay; format: functional
[6] = system: Mycobacterium tuberculosis; test: Antimycobacterial activity against Mycobacterium tuberculosis H37Rv ATCC 27294 after 5 days by microplate alamar blue assay; format: functional; details: H37Rv ATCC 27294, 120 h
[7] = system: Mycobacterium tuberculosis; test: Antimycobacterial activity against p-aminosalicyclic acid-resistant Mycobacterium tuberculosis H37Rv ATCC 35821; format: functional

Structure (SMILES) | IC50 [1] | IC90 [1] | MIC [1] | also measured
CO[C@H]1/C=C/O[C@@]2(C)Oc3c(C)c(O)c4c(O)c(c(/C=N/N5CCN(C)CC5)c(O)c4c3C2=O)NC(=O)/C(C)=C\C=C\[C@H](C)[C@H](O)[C@@H](C)[C@@H](O)[C@@H](C)[C@H](OC(C)=O)[C@@H]1C [RIFAMPIN] | 0.02 µM | 0.03 µM | 0.04 µM (≈ 0.0329 µg/mL) | 
CC1(C)CC[C@]2(CO)CC[C@]3(C)C(=CC[C@@H]4[C@@]5(C)CCCNC(C)(C)[C@@H]5CC[C@]43C)[C@H]2C1 | 3.8 µM | 11.5 µM | 12.5 µM (≈ 5.52 µg/mL) | MBC [2]: 20 µg/mL (≈ 45.3 µM)
C=C(C)[C@@H]1CC[C@]2(C(=O)O)CC[C@]3(C)[C@H](CC[C@@H]4[C@@]5(C)CC[C@H](OC(=O)/C=C/c6ccc(O)cc6)C(C)(C)[C@@H]5CC[C@]43C)[C@@H]12 |  |  |  | MIC [3]: 6.25 µg/mL (≈ 10.4 µM)
C=C(C)[C@@H]1CC[C@]2(CO)CC[C@]3(C)[C@H](CC[C@@H]4[C@@]5(C)CC[C@H](O)C(C)(C)[C@@H]5CC[C@]43C)[C@@H]12 [BETULIN] |  |  |  | MIC90 [4]: 25 to 30 µg/mL (≈ 56.5 to 67.8 µM)
COC(=O)[C@]12CC[C@@H](C)[C@H](C)[C@@H]1C1=CC[C@@H]3[C@@]4(C)CCC(=O)NC(C)(C)[C@@H]4CC[C@@]3(C)[C@]1(C)CC2 |  |  | > 10 µM | 
CC(COC(=O)/C=C/c1ccccc1)[C@@H]1CC[C@]2(COC(=O)/C=C/c3ccccc3)CC[C@]3(C)[C@H](CC[C@@H]4[C@@]5(C)CCCNC(C)(C)[C@@H]5CC[C@]43C)[C@@H]12 (stereo partly drawn) | > 200 µM | > 200 µM | 200 µM (≈ 144 µg/mL) | 
NNC(=O)c1ccncc1 [ISONIAZID] | 0.12 µM | 0.19 µM | 0.31 µM (≈ 0.0425 µg/mL) | 
COC(=O)[C@]12CC[C@@H](C(C)CO)[C@@H]1[C@H]1CC[C@@H]3[C@@]4(C)CCC(=O)NC(C)(C)[C@@H]4CC[C@@]3(C)[C@]1(C)CC2 (stereo partly drawn) | 5.7 µM | 18.3 µM | 12.5 µM (≈ 6.27 µg/mL) | 
CC1(C)CC[C@]2(COC(=O)CCC(=O)O)CC[C@]3(C)C(=CC[C@@H]4[C@@]5(C)CCCNC(C)(C)[C@@H]5CC[C@]43C)[C@H]2C1 | 20.6 µM | 82.5 µM | 100 µM (≈ 54.2 µg/mL) | 
NCC[C@H](O)C(=O)N[C@@H]1C[C@H](N)[C@@H](O[C@H]2O[C@H](CN)[C@@H](O)[C@H](O)[C@H]2O)[C@H](O)[C@H]1O[C@H]1O[C@H](CO)[C@@H](O)[C@H](N)[C@H]1O [AMIKACIN] | 0.08 µM | 0.09 µM | 0.16 µM (≈ 0.0937 µg/mL) | 
COC(=O)[C@]12CC[C@@H](C(C)COC(=O)/C=C/c3ccccc3)[C@@H]1[C@H]1CC[C@@H]3[C@@]4(C)CCC(=O)NC(C)(C)[C@@H]4CC[C@@]3(C)[C@]1(C)CC2 (stereo partly drawn) | > 200 µM | > 200 µM | > 200 µM | 
CC[C@@H](CO)NCCN[C@@H](CC)CO [ETHAMBUTOL] | 1.25 µM | 1.78 µM | 6.25 µM (≈ 1.28 µg/mL) | 
C[C@H]1[C@H](C)CC[C@]2(COC(=O)CCC(=O)O)CC[C@]3(C)C(=CC[C@@H]4[C@@]5(C)CCCNC(C)(C)[C@@H]5CC[C@]43C)[C@@H]12 | 92 µM | 110 µM | 111 µM (≈ 60.1 µg/mL) | 
C=C(C)[C@@H]1CC[C@]2(C(=O)O)CC[C@]3(C)[C@H](CC[C@@H]4[C@@]5(C)CC[C@H](O)C(C)(C)[C@@H]5CC[C@]43C)[C@@H]12 [BETULINIC ACID] |  |  |  | MIC [5]: 62 µg/mL (≈ 136 µM); MIC90 [4]: 25 µg/mL (≈ 54.7 µM); MIC [3]: 50 µg/mL (≈ 109 µM); MIC [6]: > 100 µg/mL
C=C(C)[C@@H]1CC[C@]2(COC(=O)/C=C/c3ccccc3)CC[C@]3(C)[C@H](CC[C@@H]4[C@@]5(C)CCCNC(C)(C)[C@@H]5CC[C@]43C)[C@@H]12 | 6.7 µM | 7.7 µM | 10 µM (≈ 5.72 µg/mL) | MBC [2]: 4 µg/mL (≈ 6.99 µM)
C=C(C)[C@@H]1CC[C@]2(CO)CC[C@]3(C)[C@H](CC[C@@H]4[C@@]5(C)CCCN(CCCN)C(C)(C)[C@@H]5CC[C@]43C)[C@@H]12 |  |  | > 10 µM | 
C=C(C)[C@@H]1CC[C@]2(COC(=O)/C=C/c3ccc(OC)cc3)CC[C@]3(C)[C@H](CC[C@@H]4[C@@]5(C)CCCNC(C)(C)[C@@H]5CC[C@]43C)[C@@H]12 | 160 µM | > 200 µM | > 200 µM | 
CC(CO)[C@@H]1CC[C@]2(CO)CC[C@]3(C)[C@H](CC[C@@H]4[C@@]5(C)CCCNC(C)(C)[C@@H]5CC[C@]43C)[C@@H]12 (stereo partly drawn) | 4.6 µM | 14.1 µM | 12.5 µM (≈ 5.75 µg/mL) | 
C=C(C)[C@@H]1CC[C@]2(CO)CC[C@]3(C)[C@H](CC[C@@H]4[C@@]5(C)CCCNC(C)(C)[C@@H]5CC[C@]43C)[C@@H]12 | 10.9 µM | 12.4 µM | 10 µM (≈ 4.42 µg/mL) | MIC [7]: 5 µg/mL (≈ 11.3 µM); MBC [2]: 10 µg/mL (≈ 22.6 µM)
COC(=O)[C@]12CCC(C)(C)C[C@@H]1C1/C(=N/O)C[C@@H]3[C@@]4(C)CCC(=O)NC(C)(C)[C@@H]4CC[C@@]3(C)[C@]1(C)CC2 (stereo partly drawn) | 54 µM | 97 µM | 97 µM (≈ 49.9 µg/mL) | 
COC(=O)[C@]12CCC(C)(C)C[C@@H]1C1=CC[C@@H]3[C@@]4(C)CCC(=O)NC(C)(C)[C@@H]4CC[C@@]3(C)[C@]1(C)CC2 |  |  | > 10 µM | 
